Tests used:
[1] = tested on: Cyperus serotinus, Rottb.; assay: Preemergence weed control under flooded paddy conditions, CYPSE (Flatsedge); type: in vivo; conditions: for herbicidal effect rating, CYPSE / CYPSE: preemergence weeds; for herbicidal effect rating, CYPSE / CYPSE herbicidal rating / CYPSE herbicidal effect rating: rated three to four weeks after treatment; for CYPSE herbicidal rating / CYPSE herbicidal effect rating: preemergence; for CYPSE: herbicidal effect rating 0-9, three to four weeks after treatment; for herbicidal effect rating, CYPSE: meaning of each grade not given here
[2] = tested on: Oryza sativa, (L.) Tebonnet; assay: Rice tolerance to post-transplant applications under flooded paddy conditions (Example 187), ORYSAT (Rice, Tebonnet); conditions: for herbicidal effect rating, ORYSAT (rice tolerance) / ORYSAT herbicidal rating (rice tolerance) / ORYSAT herbicidal effect rating: rated three to four weeks after treatment; for ORYSAT: herbicidal effect rating 0-9, three to four weeks after treatment
[3] = tested on: Echinochloa oryzoides (Ard.) Fritsch.; assay: Preemergence weed control under flooded paddy conditions, ECHORC (Watergrass (Calif.)); type: in vivo; conditions: flooded paddy; for herbicidal effect rating, ECHORC / ECHORC: preemergence weeds; for herbicidal effect rating, ECHORC / ECHORC herbicidal rating / ECHORC herbicidal effect rating: rated three to four weeks after treatment; for ECHORC herbicidal rating / ECHORC herbicidal effect rating: preemergence; for ECHORC: herbicidal effect rating 0-9, three to four weeks after treatment; for herbicidal effect rating, ECHORC: meaning of each grade not given here
Cyperus iria = assay: Preemergence weed control under flooded paddy conditions, CYPIR (Rice Flatsedge); type: in vivo; conditions: flooded paddy; for herbicidal effect rating, CYPIR / CYPIR: preemergence weeds; for herbicidal effect rating, CYPIR / CYPIR herbicidal rating / CYPIR herbicidal effect rating: rated three to four weeks after treatment; for CYPIR herbicidal rating / CYPIR herbicidal effect rating: preemergence; for CYPIR: herbicidal effect rating 0-9, three to four weeks after treatment; for herbicidal effect rating, CYPIR: meaning of each grade not given here
[4] = tested on: Monochoria vaginalis, Presl.; assay: Preemergence weed control under flooded paddy conditions, MOOVA (Monochoria); type: in vivo; conditions: flooded paddy; for herbicidal effect rating, MOOVA / MOOVA: preemergence weeds; for herbicidal effect rating, MOOVA / MOOVA herbicidal rating / MOOVA herbicidal effect rating: rated three to four weeks after treatment; for MOOVA herbicidal rating / MOOVA herbicidal effect rating: preemergence; for MOOVA: herbicidal effect rating 0-9, three to four weeks after treatment; for herbicidal effect rating, MOOVA: meaning of each grade not given here
Sagittaria pygmaea, L. = assay: Preemergence weed control under flooded paddy conditions, SAGPY (Arrowhead (Pygmaea)); type: in vivo; conditions: flooded paddy; for herbicidal effect rating, SAGPY / SAGPY: preemergence weeds; for herbicidal effect rating, SAGPY / SAGPY herbicidal rating / SAGPY herbicidal effect rating: rated three to four weeks after treatment; for SAGPY herbicidal rating / SAGPY herbicidal effect rating: preemergence; for SAGPY: herbicidal effect rating 0-9, three to four weeks after treatment; for herbicidal effect rating, SAGPY: meaning of each grade not given here

Cn1c(C(F)(F)F)cc(=O)n(-c2ccc3snc(C(Cl)Cl)c3c2)c1=O [Example 114, 3-[3-(Dichloromethyl)-1,2-benzisothiazol-5-yl]-1-methyl-6-(trifluoromethyl)-2,4(1H,3H)-pyrimidinedione]
herbicidal effect rating, CYPSE ([1]; 0.0313 kg/ha): 0.0 | herbicidal effect rating, CYPSE ([1]; 0.0625 kg/ha): 0.0 | herbicidal effect rating, CYPSE ([1]; 0.1250 kg/ha): 2.0 | herbicidal effect rating, CYPSE ([1]; 0.2500 kg/ha): 6.0 | herbicidal effect rating, ORYSAT (rice tolerance) ([2]; 0.0313 kg/ha): 4.0 | herbicidal effect rating, ORYSAT (rice tolerance) ([2]; 0.0625 kg/ha): 6.0 | herbicidal effect rating, ORYSAT (rice tolerance) ([2]; 0.1250 kg/ha): 7.0 | herbicidal effect rating, ORYSAT (rice tolerance) ([2]; 0.2500 kg/ha): 7.0 | herbicidal effect rating, ECHORC ([3]; 0.0313 kg/ha): 0.0 | herbicidal effect rating, ECHORC ([3]; 0.0625 kg/ha): 0.0 | herbicidal effect rating, ECHORC ([3]; 0.1250 kg/ha): 4.0 | herbicidal effect rating, ECHORC ([3]; 0.2500 kg/ha): 6.0 | herbicidal effect rating, CYPIR (Cyperus iria; 0.0313 kg/ha): 9.0 | herbicidal effect rating, CYPIR (Cyperus iria; 0.0625 kg/ha): 9.0 | herbicidal effect rating, CYPIR (Cyperus iria; 0.1250 kg/ha): 9.0 | herbicidal effect rating, CYPIR (Cyperus iria; 0.2500 kg/ha): 9.0 | herbicidal effect rating, MOOVA ([4]; 0.0313 kg/ha): 9.0 | herbicidal effect rating, MOOVA ([4]; 0.0625 kg/ha): 9.0 | herbicidal effect rating, MOOVA ([4]; 0.1250 kg/ha): 9.0 | herbicidal effect rating, MOOVA ([4]; 0.2500 kg/ha): 8.0 | herbicidal effect rating, SAGPY (Sagittaria pygmaea, L.; 0.0313 kg/ha): 0.0 | herbicidal effect rating, SAGPY (Sagittaria pygmaea, L.; 0.0625 kg/ha): 2.0 | herbicidal effect rating, SAGPY (Sagittaria pygmaea, L.; 0.1250 kg/ha): 6.0 | herbicidal effect rating, SAGPY (Sagittaria pygmaea, L.; 0.2500 kg/ha): 6.0

Cc1ccc(CS(=O)(=O)NC(=O)c2nsc3ccc(-n4c(=O)cc(C(F)(F)F)n(C)c4=O)cc23)cc1 [Example 464, 1,2-Benzisothiazole-3-carboxamide, 5-[3,6-dihydro-3-methyl-2,6-dioxo-4-(trifluoromethyl)-1(2H)-pyrimidinyl]-N-[(p-methylbenzyl)sulfonyl]-]
CYPSE herbicidal rating ([1]; 0.0320 kg/ha): 0.0 | CYPSE herbicidal rating ([1]; 0.0620 kg/ha): 0.0 | CYPSE herbicidal rating ([1]; 0.1250 kg/ha): 0.0 | CYPSE herbicidal rating ([1]; 0.2500 kg/ha): 7.0 | ORYSAT herbicidal rating (rice tolerance) ([2]; 0.0320 kg/ha): 0.0 | ORYSAT herbicidal rating (rice tolerance) ([2]; 0.0620 kg/ha): 2.0 | ORYSAT herbicidal rating (rice tolerance) ([2]; 0.1250 kg/ha): 2.0 | ORYSAT herbicidal rating (rice tolerance) ([2]; 0.2500 kg/ha): 4.0 | ECHORC herbicidal rating ([3]; 0.0320 kg/ha): 6.0 | ECHORC herbicidal rating ([3]; 0.1250 kg/ha): 6.0 | ECHORC herbicidal rating ([3]; 0.2500 kg/ha): 9.0 | CYPIR herbicidal rating (Cyperus iria; 0.0320 kg/ha): 0.0 | CYPIR herbicidal rating (Cyperus iria; 0.0620 kg/ha): 3.0 | CYPIR herbicidal rating (Cyperus iria; 0.1250 kg/ha): 3.0 | CYPIR herbicidal rating (Cyperus iria; 0.2500 kg/ha): 5.0 | MOOVA herbicidal rating ([4]; 0.0320 kg/ha): 7.0 | MOOVA herbicidal rating ([4]; 0.0620 kg/ha): 9.0 | MOOVA herbicidal rating ([4]; 0.1250 kg/ha): 9.0 | MOOVA herbicidal rating ([4]; 0.2500 kg/ha): 6.0 | SAGPY herbicidal rating (Sagittaria pygmaea, L.; 0.0320 kg/ha): 0.0 | SAGPY herbicidal rating (Sagittaria pygmaea, L.; 0.0620 kg/ha): 0.0 | SAGPY herbicidal rating (Sagittaria pygmaea, L.; 0.1250 kg/ha): 6.0 | SAGPY herbicidal rating (Sagittaria pygmaea, L.; 0.2500 kg/ha): 4.0

COC(=O)COc1ccc(I)cc1-c1nsc2ccc(-n3c(=O)cc(C(F)(F)F)n(C)c3=O)cc12 [Example 459, Acetic acid, {2-{5-[3,6-dihydro-3-methyl-2,6-dioxo-4-(trifluoromethyl)-1(2H)-pyrimidinyl]-1,2-benzisothiazol-3-yl}-4-iodophenoxy}-, methyl ester]
CYPSE herbicidal rating ([1]; 0.0320 kg/ha): 0.0 | CYPSE ([1]; 0.0620 kg/ha): 0.0 | CYPSE ([1]; 0.1250 kg/ha): 0.0 | CYPSE ([1]; 0.2500 kg/ha): 3.0 | ORYSAT herbicidal rating (rice tolerance) ([2]; 0.0320 kg/ha): 2.0 | ORYSAT ([2]; 0.0620 kg/ha): 4.0 | ORYSAT ([2]; 0.1250 kg/ha): 5.0 | ORYSAT ([2]; 0.2500 kg/ha): 5.0 | ECHORC herbicidal rating ([3]; 0.0320 kg/ha): 7.0 | ECHORC ([3]; 0.0620 kg/ha): 7.0 | ECHORC ([3]; 0.1250 kg/ha): 9.0 | ECHORC ([3]; 0.2500 kg/ha): 9.0 | CYPIR herbicidal rating (Cyperus iria; 0.0320 kg/ha): 0.0 | CYPIR (Cyperus iria; 0.0620 kg/ha): 2.0 | CYPIR (Cyperus iria; 0.1250 kg/ha): 4.0 | CYPIR (Cyperus iria; 0.2500 kg/ha): 4.0 | MOOVA herbicidal rating ([4]; 0.0320 kg/ha): 3.0 | MOOVA ([4]; 0.0620 kg/ha): 5.0 | MOOVA ([4]; 0.1250 kg/ha): 7.0 | MOOVA ([4]; 0.2500 kg/ha): 7.0 | SAGPY herbicidal rating (Sagittaria pygmaea, L.; 0.0320 kg/ha): 0.0 | SAGPY (Sagittaria pygmaea, L.; 0.0620 kg/ha): 0.0 | SAGPY (Sagittaria pygmaea, L.; 0.1250 kg/ha): 0.0 | SAGPY (Sagittaria pygmaea, L.; 0.2500 kg/ha): 0.0

COC(=O)C(C)Oc1c(-c2nsc3ccc(-n4c(=O)cc(C(F)(F)F)n(C)c4=O)cc23)ccc(C)c1C (centres unmarked) [Example 275, Propionic acid, 2-{{6-{5-[3,6-dihydro-3-methyl-2,6-dioxo-4-(trifluoromethyl)-1(2H)-pyrimidinyl]-1,2-benzisothiazol-3-yl}-2,3-xylyl}oxy}-, methyl ester]
CYPSE herbicidal effect rating ([1]; Rate 0.0320 kg/ha): 9.0 | CYPSE herbicidal effect rating ([1]; Rate 0.0620 kg/ha): 9.0 | CYPSE herbicidal effect rating ([1]; Rate 0.1250 kg/ha): 9.0 | CYPSE herbicidal effect rating ([1]; Rate 0.2500 kg/ha): 9.0 | CYPSE herbicidal effect rating ([1]; Rate 0.5000 kg/ha): 0.0 | ORYSAT herbicidal effect rating ([2]; Rate 0.0320 kg/ha): 0.0 | ORYSAT herbicidal effect rating ([2]; Rate 0.0620 kg/ha): 0.0 | ORYSAT herbicidal effect rating ([2]; Rate 0.1250 kg/ha): 3.0 | ORYSAT herbicidal effect rating ([2]; Rate 0.2500 kg/ha): 4.0 | ORYSAT herbicidal effect rating ([2]; Rate 0.5000 kg/ha): 5.0 | ECHORC herbicidal effect rating ([3]; Rate 0.0320 kg/ha): 3.7 | ECHORC herbicidal effect rating ([3]; Rate 0.0620 kg/ha): 3.9 | ECHORC herbicidal effect rating ([3]; Rate 0.1250 kg/ha): 4.1 | ECHORC herbicidal effect rating ([3]; Rate 0.2500 kg/ha): 9.0 | ECHORC herbicidal effect rating ([3]; Rate 0.5000 kg/ha): 7.0 | CYPIR herbicidal effect rating (Cyperus iria; Rate 0.0320 kg/ha): 0.0 | CYPIR herbicidal effect rating (Cyperus iria; Rate 0.0620 kg/ha): 4.0 | CYPIR herbicidal effect rating (Cyperus iria; Rate 0.1250 kg/ha): 6.0 | CYPIR herbicidal effect rating (Cyperus iria; Rate 0.2500 kg/ha): 7.0 | CYPIR herbicidal effect rating (Cyperus iria; Rate 0.5000 kg/ha): 0.0 | MOOVA herbicidal effect rating ([4]; Rate 0.0320 kg/ha): 6.0 | MOOVA herbicidal effect rating ([4]; Rate 0.0620 kg/ha): 9.0 | MOOVA herbicidal effect rating ([4]; Rate 0.1250 kg/ha): 9.0 | MOOVA herbicidal effect rating ([4]; Rate 0.2500 kg/ha): 9.0 | MOOVA herbicidal effect rating ([4]; Rate 0.5000 kg/ha): 9.0 | SAGPY herbicidal effect rating (Sagittaria pygmaea, L.; Rate 0.0320 kg/ha): 0.0 | SAGPY herbicidal effect rating (Sagittaria pygmaea, L.; Rate 0.0620 kg/ha): 0.0 | SAGPY herbicidal effect rating (Sagittaria pygmaea, L.; Rate 0.1250 kg/ha): 3.0 | SAGPY herbicidal effect rating (Sagittaria pygmaea, L.; Rate 0.2500 kg/ha): 9.0 | SAGPY herbicidal effect rating (Sagittaria pygmaea, L.; Rate 0.5000 kg/ha): 0.0

Cn1c(C(F)(F)F)cc(=O)n(-c2ccc3snc(C(C)(C)C(=O)OCc4ccccn4)c3c2)c1=O [Example 510, 1,2-Benzisothiazole-3-acetic acid, 5-[3,6-dihydro-3-methyl-2,6-dioxo-4-(trifluoromethyl)-1(2H)-pyrimidinyl]-alpha,alpha-dimethyl-, 2-pyridylmethyl ester]
CYPSE herbicidal rating ([1]; 0.0320 kg/ha): 0.0 | CYPSE herbicidal rating ([1]; 0.0620 kg/ha): 0.0 | CYPSE herbicidal rating ([1]; 0.1250 kg/ha): 3.0 | CYPSE herbicidal rating ([1]; 0.2500 kg/ha): 5.0 | ORYSAT herbicidal rating (rice tolerance) ([2]; 0.0320 kg/ha): 0.0 | ORYSAT herbicidal rating (rice tolerance) ([2]; 0.0620 kg/ha): 2.0 | ORYSAT herbicidal rating (rice tolerance) ([2]; 0.1250 kg/ha): 4.0 | ORYSAT herbicidal rating (rice tolerance) ([2]; 0.2500 kg/ha): 8.0 | ECHORC herbicidal rating ([3]; 0.0320 kg/ha): 9.0 | ECHORC herbicidal rating ([3]; 0.0620 kg/ha): 9.0 | ECHORC herbicidal rating ([3]; 0.1250 kg/ha): 9.0 | ECHORC herbicidal rating ([3]; 0.2500 kg/ha): 9.0 | CYPIR herbicidal rating (Cyperus iria; 0.0320 kg/ha): 0.0 | CYPIR herbicidal rating (Cyperus iria; 0.0620 kg/ha): 3.0 | CYPIR herbicidal rating (Cyperus iria; 0.1250 kg/ha): 7.0 | CYPIR herbicidal rating (Cyperus iria; 0.2500 kg/ha): 8.0 | MOOVA herbicidal rating ([4]; 0.0320 kg/ha): 6.0 | MOOVA herbicidal rating ([4]; 0.0620 kg/ha): 7.0 | MOOVA herbicidal rating ([4]; 0.1250 kg/ha): 9.0 | MOOVA herbicidal rating ([4]; 0.2500 kg/ha): 9.0 | SAGPY herbicidal rating (Sagittaria pygmaea, L.; 0.0320 kg/ha): 3.0 | SAGPY herbicidal rating (Sagittaria pygmaea, L.; 0.0620 kg/ha): 4.0 | SAGPY herbicidal rating (Sagittaria pygmaea, L.; 0.1250 kg/ha): 5.0 | SAGPY herbicidal rating (Sagittaria pygmaea, L.; 0.2500 kg/ha): 6.0

Source: patent publication EP0908457B1, “3-(1,2-benzisothiazol- and isoxazol-5-Y1)-2,4(1H,3H)-pyrimidinedione or thione and 3-(1,2-benzisothiazol- and isoxazol-5-y1)-4(3H)-pyrimidinone or thione herbicidal agents” (BASF AKTIENGESELLSCHAFT, priority 1997, dated 1999)
